Experimental data published in patent US6617350B2, “Inhibitors of aspartyl protease” (priority 1999, dated 2003).
Read-outs that look alike come from different tables or passages of the source.

How the values were obtained:
HIV-1 (strain IIIB) = assay: microbe, parasite or virus in culture; assay type: cell-based; conditions: anti-viral potency in MT-4 cells, read-out: IC50
HIV-1 protease = HIV-1 protease (Human immunodeficiency virus type 1 group M subtype B, UniProt P04585); assay: biochemical
[1] = Human immunodeficiency virus 1, IIIB, MT4, Table 12
[2] = Table 12, HIV-1 protease, read-out: Ki

| Molecule | IC50 (HIV-1 (strain IIIB); [1]) [nM] | Ki (HIV-1 protease; [2]) [nM] | Ki (HIV-1 protease) [nM] | IC50 (HIV-1 (strain IIIB); Table 12) [nM] |
| --- | --- | --- | --- | --- |
| CC(C)(CCCNS(C)(=O)=O)CN(C[C@@H](O)[C@H](Cc1ccccc1)NC(=O)O[C@H]1CO[C@H]2OCC[C@H]21)S(=O)(=O)c1ccc2c(c1)OCCO2 [Compound 271, (3R,3aS,6aR)hexahydrofuro[2,3-b]furan-3-yl N-[(1S,2R)-3-((2,3-dihydro-1,4-benzodioxin-6-ylsulfonyl)2,2-dimethyl-5-[(methylsulfonyl)amino]pentylamino)-1-benzyl-2-hydroxypropyl]carbamate] | ≤ 100 | < 1 | – | – |
| CNC(=O)OCCCC(C)(C)CN(CC(O)[C@H](Cc1ccccc1)NC(=O)OC1COC2OCCC12)S(=O)(=O)c1ccc2c(c1)OCO2 (stereo partly drawn) [Compound 272, (3R,3aS,6aR)-Hexahydrofuro[2,3-b]furan-3-yl N-((1S,2R)-1-benzyl-3-[2,2-dimethyl-5-(N′-methylcarbamoyloxypentyl)][(3,4-methylenedioxyphenyl)sulfonyl]amino-2-hydroxypropyl)carbamate] | ≤ 100 | – | < 1 | – |
| COc1ccc(S(=O)(=O)N(C[C@@H](O)[C@H](Cc2ccccc2)NC(=O)OC2COCOC2)CC(C)(C)CCC(N)=O)cc1 [Compound 273, {(1S,2R)-1-Benzyl-3-[(4-carboxamide-2,2-dimethyl-butyl)-(4-methoxy-benzenesulfonyl)-amino]-2-hydroxy-propyl}-carbamic acid [1,3]dioxan-5-yl ester] | 100 to 500 | < 1 | – | – |
| COC(=O)CCC(C)(C)CN(C[C@@H](O)[C@H](Cc1ccccc1)NC(=O)OC1COCOC1)S(=O)(=O)c1ccc(OC)cc1 [Compound 274, {(1S,2R)-1-Benzyl-3-[(4-carbomethoxy-2,2-dimethyl-butyl)-(4-methoxy-benzenesulfonyl)-amino]-2-hydroxy-propyl}-carbamic acid[1,3]dioxan-5-yl ester] | 100 to 500 | < 1 | – | – |
| COc1ccc(S(=O)(=O)N(CCC(C)=O)C[C@@H](O)[C@H](Cc2ccccc2)NC(=O)O[C@H]2CO[C@H]3OCC[C@H]32)cc1 [Compound 280, {(1S,2R)-3-[(4-methoxybenzenesulfonyl)-(3-butanonyl)-amino]-1-benzyl-2-hydroxy-propyl}-carbamic acid (3R,3aS,6aR)hexahydro-furo[2,3-b]furan-3-yl ester] | 100 to 500 | < 1 | – | – |
| COc1ccc(S(=O)(=O)N(CCC(C)=O)C[C@@H](O)[C@H](Cc2ccccc2)NC(=O)OC2COCOC2)cc1 [Compound 281] | 100 to 500 | 1 to 10 | – | – |
| tert-Butyl N-(1S,2R)-1-benzyl-3-(4-cyanobutyl)[(4-methoxyphenyl)sulfonyl]amino-2-hydroxypropyl)carbamate [Compound 4] | – | 1 to 10 | – | 100 to 500 |
